# Results from paper PMC10700673, “A Smart Intracellular Self‐Assembling Bioorthogonal Raman Active Nanoprobe for Targeted Tumor Imaging” (Advanced Science, 2023).
# Legend:
# [1] = self-assembly into nanoparticles, TEM and DLS; assay type: physicochemical; settings: probe solution without legumain enzyme
# Procedure: To accurately evaluate the efficiency of the R6‐AAN‐alkyne‐nitrile nanoprobe, time‐dependent Raman measurements were performed (Figure 2g), where the ratio of alkyne/nitrile peak intensity was used as an indicator of the reaction progress. We found as the reaction progressed the alkyne/nitrile peak intensity increased from 0.22±0.01 to 4.4±0.12 and plateaued at a final value of 4.6±0.12 indicating almost complete conversion of nanoSABER to alkyne‐dimer within 3 h. […] To further get insight into the structural arrangements of the self‐assembled dimers, transmission electron microscopy (TEM) was performed. […]
# All materials were sourced from Sigma, Chem Impex, or Thermo Fisher and used as received, with purification performed only when explicitly indicated. […] The mass of synthesized peptides was determined using Bruker AutoFLex III Maldi‐TOF or Voyager DE‐STR MALDI‐TOF mass spectrometers. ^1H NMR spectra were obtained on a 400 MHz Bruker Avance at 27 °C in dimethylsulfoxide (DMSO)‐d6. Ultraviolet–visible (UV–Vis) absorption spectra were recorded with a Perkin Elmer Lambda 950 UV–Vis spectrophotometer. […] High‐resolution fluorescence imaging was performed using a Leica SP8 confocal microscope equipped with a 63× oil‐immersion objective. The size distribution of nanoparticles was determined using dynamic light scattering (DLS) (Zetasizer Nano, Malvern Instruments) at room temperature (RT). […]
# [2] = in vivo toxicity and biocompatibility; design: species or system healthy female rag2 mice; settings: 7 days after IV 100 µL, 0.0125 mmol kg-1, n = 3
# Source text: The in vivo toxicity and biocompatibility of nanoSABER were investigated following IV injection of nanoSABER in mice (Figure 7a). […] In addition, we examined various common indicators related to renal function (Figure 7c), liver function (Figure 7d), and bone marrow function (Figure 7e). […] These findings further confirm the biocompatibility and safety of the nanoSABER for in vivo targeted tumor imaging.
# Figure 7 a) Schematic illustration of in vivo toxicity and biocompatibility assessment 7 days after IV injection of nanoSABER. b) Histology of major organs excised and stained with H&E for PBS (control) or nanoSABER injection. c) Kidney function test for blood plasma and urine. d) Liver function test for the enzymes aspartate transaminase (AST), alkaline phosphatase (ALP), and alanine transaminase (ALT) in blood plasma. e) Bone marrow function test for red blood cells (RBCs), white blood cells (WBCs), and platelets in blood plasma. All data are presented as mean ± standard deviation, n = 3. p‐Values of <0.001 (***), 0.001 to 0.01 (**), and 0.01 to 0.05 (*) were considered significant.
# All animal experiments were carried out under an approved IACUC protocol. The biocompatibility of nanoSABER was evaluated in vivo, using healthy female rag2 mice that were divided into two groups (n = 3 each). […]
# [3] = tested on: DU145, LNCaP, and RWPE1 cells; experiment: cell viability, Trypan blue cell counting; assay type: cell-based; settings: 48 h of incubation, % of untreated control, three independent experiments
# Source text: To confirm that the nanoSABER nanoprobe can effectively differentiate between cells with high and low levels of legumain expression, we examined nanoSABER assembly in DU145, LNCaP, and RWPE1 cells. DU145 and LNCaP are legumain overexpressing and low‐expressing prostate cancer cell lines, respectively, whereas RWPE1 is a normal prostate epithelium cell line. Legumain‐overexpressing tumorigenic cells are aggressive in terms of migration and invasion.^[ [33] ^] Therefore, designing new probes for targeted imaging of legumain expression is of great significance for tumor diagnosis and tumor staging. […] A combination of both high endogenous GSH and high legumain levels is necessary in order for DU145 cells to uncage the thiol and amino groups in the nanoSABER, triggering intramolecular cyclization to form alkyne‐dimers.
# For cell viability testing, the total numbers of DU145, LNCaP, and RWPE1 cells were counted after staining with Trypan blue using an Invitrogen Countess 3 automated cell counter. Cells were incubated with nanoSABER at different concentrations. Cell viability was calculated as a percentage of control (untreated cells) set at 100%. Data were expressed as mean ± standard deviation. from three independent experiments.
substance,measurement,setting,value
Ac‐Arg‐Arg‐Arg‐Arg‐Arg‐Arg‐Ala‐Ala‐Asn‐Cys(StBu)‐Pra‐Lys‐CBT [nanoSABER],nanoparticles in TEM before addition of legumain,[1],did not show any detectable nanoparticles
same,"renal, liver and bone marrow function parameters",[2]; compared with PBS group,fell within a normal reference range
same,H&E histology of major organs,"[2]; heart, liver, lung, kidney, spleen",no signs of histopathological damage or tissue inflammation
same,toxic concentration (no toxicity up to),[3],> 250 µM
